Results as given in patent publication US7629310B2, “RhoB as a suppressor of cancer cell growth, cell transformation, and metastasis” (University of South Florida, priority 2000, dated 2009).

Experiments:
[1] = system: RhoB protein levels; assay: RhoB protein level by Western blotting in PANC-1 cells; format: cell-based, human; settings: treated 48 hours (FIG. 7E)
Experimental: H-Ras/3T3 cells were treated with (FIG. 7A) different concentrations of LY294002 for 48 hrs or (FIG. 7B) LY294002 (20 μM) for different time intervals. The cells were then lysed and analyzed for RhoB and RhoA protein levels by Western Blotting with anti-RhoB and anti-RhoA; the same filter was re-probed with antiβ-actin for loading control. NIH3T3 cells (FIG. 7C) were transiently transfected with various genes as indicated for 24 hours; and then treated with either DMSO vehicle or LY294002 or 5-FU alone or in combination for another 48 hours. The cells were analyzed for RhoB, RhoA, and β-actin protein levels as described above. […] The cells were analyzed for RhoB and RhoA protein levels by Western Blotting with anti-RhoB and anti-RhoA; the same filter was re-probed with anti-β-actin, anti-HA and anti-pan-Akt antibodies. PANC-1 cells (FIG. 7E) and A549 cells (FIG. 7F) were treated PD, LY or 5-FU as indicated for 48 hours; then analyzed for RhoB and RhoA protein levels by Western Blotting as described above.
Western Blot Analysis. […] Antigen-bound antibody was detected by enhanced chemiluminescence Western blotting kit ([…] […] BIOTECH), Piscataway, N.J.). β-actin was detected as an internal loading control.

[2] = system: NIH3T3 cells; assay: 5-FU-induced apoptosis (Annexin V, flow cytometry) in NIH3T3 cells; format: cell-based; settings: NIH3T3, transfected 24 hours then 5-FU 48 hours (FIG. 10A); control 28-30%
Experimental: Apoptosis Assay. Cells were collected by trypsinization, washed in wash buffer and stained with Annexin V and 7-AAD according to manufacturer's recommendation (PharMingen, San Diego, Calif.). Data acquisition and analysis was performed by the Flow Cytometry Core Facility at the H. Lee Moffitt Cancer Center (Tampa, Fla.). All the samples were performed in duplicate and a representative of 3 independent experiments were reported here.

[3] = system: RhoB promoter; assay: RhoB promoter transcriptional activity (luciferase reporter) in NIH3T3 cells; format: cell-based
Description: Gene Constructs and RhoB Promoter Transcriptional Activity Assay. Constitutively active H-Ras61L, K-RasV12, N-RasV12, and dominant negative […]-Ras were kind gifts from Dr. Channing Der (University of North Carolina) (Khosravi-Far, R. et al., Mol Cell Biol, 1995, 15:6443-53; Quilliam, L. A. et al., Mol Cell Biol, 1994, 14:1113-21). Wild-type RhoA and RhoB were subcloned into hemaglutinin (HA)-tagged pcDNA3 (INVITROGEN). The orientation and the sequences of these genes were confirmed by DNA sequencing facilities at the H. Lee Moffitt Cancer Center, Tampa, Fla. RhoB promoter construct pGEI was kindly provided by Dr Y. Monden (Banyu Tsukuba Research, Japan) (Nakamura et al., 1996). pCMV-β-galactosidase vector was purchased from INVITROGEN. The plasmid containing CA-, DN-PI3K, Mek and Akt were kindly provided by Dr. Julie Y. Djeu (H. Lee Moffitt Cancer and Research Institute, Tampa, Fla.) (Jiang, K. et al., Blood, 2003, 101:236-44). β-galactosidase activity and luciferase assay kits were purchased from PROMEGA Corporation, Madison, Wis. The serum response element (SRE) reporter was provided by Dr. Richard Jove, H. Lee Moffitt Cancer and Research Institute, Tampa, Fla. (Turkson, J. et al., Mol Cell Biol, 1999, 19:7519-28). […] Richard Jove, Oncology program, H. Lee Moffitt Cancer and Research Institute, Tampa, Fla. (Turkson, J. et al., Mol Cell Biol, 1999, 19:7519-28). […] (Luetteke, N. C. et al., Genes Dev, 1994, 8:399-413). DNA transfection was performed with the standard lipofectamine protocol (INVITROGEN). […] After transfection the cells were grown for another 36-48 h. Cells were then washed twice with PBS and lyzed in Promega Passive Lysis Buffer. Aliquots of the lysates were then used to measure the luciferase and β-galactosidase activities. The luciferase values were first divided by β-galactosidase values. The RhoB promoter transcriptional activity was determined by dividing the luciferase/β-Gal values from oncogene-transfected cells by those from pcDNA3-transfected cells. […] All the samples were performed in triplicate and the averages of 3 independent experiments were reported here.

[4] = system: RhoB promoter; assay: RhoB promoter transcriptional activity (luciferase reporter) in human cancer cell lines A-549, Panc-1, C33A; format: cell-based; settings: for RhoB Promoter transcriptional activity (% inhibition): vs pcDNA3 control
Description: Gene Constructs and RhoB Promoter Transcriptional Activity Assay. Constitutively active H-Ras61L, K-RasV12, N-RasV12, and dominant negative […]-Ras were kind gifts from Dr. Channing Der (University of North Carolina) (Khosravi-Far, R. et al., Mol Cell Biol, 1995, 15:6443-53; Quilliam, L. A. et al., Mol Cell Biol, 1994, 14:1113-21). Wild-type RhoA and RhoB were subcloned into hemaglutinin (HA)-tagged pcDNA3 (INVITROGEN). The orientation and the sequences of these genes were confirmed by DNA sequencing facilities at the H. Lee Moffitt Cancer Center, Tampa, Fla. RhoB promoter construct pGEI was kindly provided by Dr Y. Monden (Banyu Tsukuba Research, Japan) (Nakamura et al., 1996). pCMV-β-galactosidase vector was purchased from INVITROGEN. The plasmid containing CA-, DN-PI3K, Mek and Akt were kindly provided by Dr. Julie Y. Djeu (H. Lee Moffitt Cancer and Research Institute, Tampa, Fla.) (Jiang, K. et al., Blood, 2003, 101:236-44). β-galactosidase activity and luciferase assay kits were purchased from PROMEGA Corporation, Madison, Wis. The serum response element (SRE) reporter was provided by Dr. Richard Jove, H. Lee Moffitt Cancer and Research Institute, Tampa, Fla. […] Richard Jove, Oncology program, H. Lee Moffitt Cancer and Research Institute, Tampa, Fla. […] Human EGFR, ErbB2 cDNA construct were kindly provided by Dr. Noreen Luetteke, H. Lee Moffitt Cancer and Research Institute, Tampa, Fla. (Luetteke, N. C. et al., Genes Dev, 1994, 8:399-413). DNA transfection was performed with the standard lipofectamine protocol (INVITROGEN). Briefly, cells were plated in 60-mm plates, pGEI plasmid was used at 2 μg per plate, whereas all the other plasmids were used at 0.1-1.0 μg per plate. After transfection the cells were grown for another 36-48 h. Cells were then washed twice with PBS and lyzed in Promega Passive Lysis Buffer. Aliquots of the lysates were then used to measure the luciferase and β-galactosidase activities. The luciferase values were first divided by β-galactosidase values. The RhoB promoter transcriptional activity was determined by dividing the luciferase/β-Gal values from oncogene-transfected cells by those from pcDNA3-transfected cells. […] All the samples were performed in triplicate and the averages of 3 independent experiments were reported here. Proteins that induce malignant transformation and those that suppress tumorigenesis most likely antagonize each other's functions. […] Du, W. et al., Mol Cell Biol, 1999, 19:1831-40; Du, W. and Prendergast, G. C., Cancer Res, 1999, 59:5492-6). An objective of the experiments described herein was to determine whether oncogenes that are prevalent in human cancers suppress RhoB expression, and whether RhoB antagonizes the ability of these oncogenes to induce malignant transformation. To this end, the effects of several oncogenes on RhoB promoter transcriptional activity were first evaluated. NIH3T3 cells and human cancer cell lines derived from lung (A-549), pancreatic (Panc-1) and cervical (C33A) tumors were transiently transfected with pcDNA3 empty vectors or pcDNA3 constructs containing various oncogenes along with full length RhoB promoter firefly luciferase reporter and SRE-renilla luciferase reporter as well as a β-gal reporter for controlling transfection efficiency as described in the Materials and Methods section.

[5] = system: RhoB promoter; assay: RhoB promoter transcriptional activity in H-Ras/3T3 cells; format: cell-based; settings: treated 12 hours (FIG. 6B)
Description: The cell lysates were processed as in FIGS. 5A-5D. […] The cell lysates were processed as in FIGS. 5A-5D. […] The cell lysates were processed as in FIGS. 5A-5D. Gene Constructs and RhoB Promoter Transcriptional Activity Assay. Constitutively active H-Ras61L, K-RasV12, N-RasV12, and dominant negative […]-Ras were kind gifts from Dr. Channing Der (University of North Carolina) (Khosravi-Far, R. et al., Mol Cell Biol, 1995, 15:6443-53; Quilliam, L. A. et al., Mol Cell Biol, 1994, 14:1113-21). Wild-type RhoA and RhoB were subcloned into hemaglutinin (HA)-tagged pcDNA3 (INVITROGEN). The orientation and the sequences of these genes were confirmed by DNA sequencing facilities at the H. Lee Moffitt Cancer Center, Tampa, Fla. RhoB promoter construct pGEI was kindly provided by Dr Y. Monden (Banyu Tsukuba Research, Japan) (Nakamura et al., 1996). pCMV-β-galactosidase vector was purchased from INVITROGEN. The plasmid containing CA-, DN-PI3K, Mek and Akt were kindly provided by Dr. Julie Y. Djeu (H. Lee Moffitt Cancer and Research Institute, Tampa, Fla.) (Jiang, K. et al., Blood, 2003, 101:236-44). β-galactosidase activity and luciferase assay kits were purchased from PROMEGA Corporation, Madison, Wis. […] The RhoB promoter transcriptional activity was determined by dividing the luciferase/β-Gal values from oncogene-transfected cells by those from pcDNA3-transfected cells. […]

## COc1cccc(-c2cc(=O)c3ccccc3o2)c1N [PD98059]
[1]
  induction of RhoB protein levels: no induction

## Akt: Akt expression construct transfected into NIH3T3 cells
[2]
  5-FU apoptotic rate after transfection: 17%

## ErbB2: human ErbB2 cDNA construct
[3]; NIH3T3, in the presence of N17-H-Ras
  inhibition of RhoB promoter activity: 18%
[3]; NIH3T3, transiently transfected 36 hrs, vs pcDNA3 control
  RhoB Promoter transcriptional activity (% inhibition): 79 ± 3.9%
[4]; A549, transiently transfected 36 hrs
  RhoB Promoter transcriptional activity (% inhibition): 74 ± 4.3%
[4]; C33A, transiently transfected 36 hrs
  RhoB Promoter transcriptional activity (% inhibition): 69 ± 3.6%
[4]; PANC1, transiently transfected 36 hrs
  RhoB Promoter transcriptional activity (% inhibition): 68 ± 4.1%

## O=c1cc(N2CCOCC2)oc2c(-c3ccccc3)cccc12 [LY294002]
[4]; PANC-1 and A-549 cells expressing mutated K-Ras
  5-FU induction of RhoB promoter activity: sensitize these cells to 5-FU induction of RhoB promoter activity
[5]
  induction of RhoB promoter activity: 1.7 fold
[1]
  induction of RhoB protein levels: 8 fold
